# In patent publication US9486471B2, “Combination therapy for the treatment of cancer” (McMaster University, priority 2012, dated 2016):
# Tests used:
# [1] = test system: primary AML cells; assay: Methocellulose blast colony formation of primary AML cells (Example 2); assay type: cell-based, human; settings: 10 μM; control about 22; at least 14 days
# Description: Normal HSCs and progenitors were sourced from either mobilized peripheral blood or umbilical cord blood of health patients. Primary AML cells were taken from patients diagnosed with AML. Both normal HSCs and primary AML cells were cultured under standard in vitro methocellulose assay conditions (see http://www.stemcell.com/en/Products/All-Products/MethoCult-H4434-Classic.aspx as well as Clinton Campbell et al. The human stem cell hierarchy is defined by a functional dependence on Mcl-1 for self-renewal capacity. Blood 116 (9) 1433-1442 (Jun. 4, 2010), hereby incorporated by reference) for at least 14 days before the number of colonies were recorded.
# [2] = test system: p53 and p21 in neoplastic hPSCs; assay: p53 and p21 accumulation in neoplastic hPSCs; assay type: cell-based, human; settings: 24 h; 10 μM etoposide, 10 μM thioridazine, BMP4
# From the text: Antibodies. Antibodies used for immunocytochemistry were the following: Oct3/4 (BD Trunsduction Laboratories, cat#611203), Sox2 (R&D, cat#AF2018). To detect human hematopoietic cells, Pacific Blue-, PE-, APC- or FITC labeled anti-human CD45 was used (BD Biosciences). FITC anti-CD33, PE anti-CD13, FITC anti-CD41a, FITC anti-HLA DR, and PE anti-CD19 antibodies were obtained from BD Pharmingen. PE anti-CD14, PE anti-CD15 and PE anti-GlyA were acquired from Immunotech Beckman Coulter. To determine pluripotency, PE anti-SSEA3 (BD Biosciences) and PE- or AlexaFluor488 anti-Oct4 (BD Biosciences). Rabbit anti-human dopamine receptor antibodies; DRD1 (Cat#324390), DRD2 (Cat#324393), DRD3 (Cat#324402), DRD4 (Cat#324405) and DRD5 (Cat#324408) were sourced from EMD Chemical. Anti-rabbit Alexa-Fluor-488 (Molecular Probes) was used as the secondary antibody. Primary anti-p53 (Cat#2527) and anti-p21 (Cat#2947) rabbit IgG sourced from Cell Signaling Technology were used to stain fixed and permeabilized cells. Anti-rabbit alexa-Fluor-546 (Molecular Probes) was used as the secondary antibody.
# [3] = test system: hematopoietic stem and progenitor cells (HSPC, CB lin-); assay: Methylcellulose colony-forming assay, HSPC (CB lin-); settings: 24 h treatment, colonies scored after 14 days
# Description: (§1) AML/HPSC Cell Culture. AML cell lines, namely, OCI-AML2 (M4), OCI-AML3 (M4), HL-60 (M2) and MV-4-11(M5) were cultured in RPMI (Gibco) supplemented with 5% heated-inactivated FBS (HyClone). For DR agonist studies with R(+)-7-Hydroxy-DPAT hydrobromide (Sigma), serum-free conditions were employed instead due to the prevalence of dopamine in FBS (Little et al., 2002). AML patient blasts were cultured in IMDM supplemented with 5% heated inactivated FBS (HyClone), 5 ng/mL IL3 (R&D systems), 5×10^−5 M β-mercaptoethanol (Sigma) and BIT (StemCell Technologies). HSC media contained IMDM supplemented with 1% BSA (Sigma), 100 ng/mL SCF (R&D systems), 100 ng/mL Flt-3L (R&D systems) and 20 ng/mL TPO (R&D systems). Patient HSPC and AML samples were treated with compound or DMSO-vehicle (0.1%) for 24 h prior to CFU plating or xenotransplantation studies.
# (§2) Methylcellulose Colony-Forming Assay. AML patient or CB lin− cells were cultured 24 hours in the presence of compound or DMSO-vehicle (0.1%) control. AML cells were plated at 50 000 cells/mL in Methocult GF H4434 (Stem Cell Technologies). CB lin− cells were plated at 1000 cells/mL in Methocult GF H4434 (Stem Cell Technologies). Colonies were scored after 14 days of culture using standard morphological criteria.
# [4] = test system: AML patient blast cells; assay: Methylcellulose colony-forming assay, AML patient blast-CFU; assay type: cell-based, human
# Description: as §1, §2
# [5] = test system: patient AML cells (CD11b); assay: Frequency of CD11b granulocytic cells in cultured patient AML cells; assay type: cell-based, human; settings: 10 μM, up to 96 hours
# [6] = test system: AML LSCs (CD45+CD33+ blast engraftment); assay: Xenotransplantation of compound-treated AML cells into NSG mice; assay type: in vivo
# Description: Xenotransplantation Assays. NOD.Cg-Prkdc^scid II2rg^tm1Wjl/SzJ adult mice (NSG) were sub-lethally irradiated with 315 rads 24 hours prior transplantation. 0.8-1.0×10^7 AML MNCs or 1.5-1.8×10^5 CB lin-hematopoietic cells treated with compound or DMSO-vehicle for 24 h were injected via tail vein (IV). After 6-10 weeks, animals were culled, and the BM and spleen were analyzed for the presence of human cells by flow cytometry (LSRII, BD) and data was analyzed using FlowJo software (Tree Star Inc). For secondary HSPC transplants, equal number of engrafted human cells from CB lin− transplants were injected IV in adult irradiated NSG mice as described for primary transplants.
# To delineate whether the inhibition of AML-blasts detected in vitro was due to the compounds affecting the neoplastic stem cell compartment, xenotransplantation studies (Dick, 2008) that functionally define LSCs and hematopoietic stem cells (HSCs) were conducted (FIG. 12).
structure (smiles),measurement,setting,value
"CSc1ccc2c(c1)N(CCC1CCCCN1C)c1ccccc1S2 (racemic) [thioridazine, 10-{2-[(RS)-1-Methylpiperidin-2-yl]ethyl}-2-methylsulfanylphenothiazine]",number of CFU colonies of AML cells,[1],1.6 blast colonies
same,accumulation of cell stress marker p53,[2],no accumulation
same,accumulation of p21,[2],no accumulation
same,HSPC multilineage differentiation,[3],retaining
same,"blast-CFU generation, DR+ subfraction of patient AML","[4]; 10 μM, 24 h",reduction
same,"blast-CFU generation, DR- subfraction of patient AML","[4]; 10 μM, 24 h",no reduction
same,AML proliferation/clonogenic capacity,"[4]; 24 h treatment, colonies scored after 14 days",reduction
same,AML-blast CFU formation,"[4]; dose not stated in the sentence (0.1, 1, 10 μM tested)",reduced
same,frequency of granulocytic (CD11b) AML-blast cells,[5],marked increase
same,leukemic disease-initiating AML LSC capacity,"[6]; 10 μM, 24 h ex vivo treatment",significantly reduce
same,level of leukemic engraftment of secondary transplant recipients,"[6]; secondary recipients, in the absence of thioridazine",no difference
